Results on seven molecules are retold here after US12297207B2, “Maytansinoid derivatives, conjugates thereof, and methods of use” (priority 2015, dated 2025).

One series deals with C4-2 (PSMA+) cells. Put plainly: In vitro cytotoxicity assay (CCK8 viability), C4-2 cells. In kind it is cell-based. How it is done:
(§1) In this Example, the ability of various antibody-drug conjugates or their associated payloads to kill antigen-expressing tumor cells in vitro was assessed.
(§2) Ovcar3 (Muc16+) or C4-2 (PSMA+) cells were seeded in 96 well plates at 3000 (C42) cells per well in complete growth media and grown overnight. For cell viability curves, serially diluted conjugates or payloads were added to the cells at final concentrations ranging from 300 nM to 5 pM and incubated for 3 days. To measure viability, cells were incubated with CCK8 (Dojindo) for the final 1-3 hours and the absorbance at 450 nm (OD450) was determined on a Victor (Perkin Elmer). Background OD450 levels determined from digitonin ([…]) treated cells were subtracted from all wells and viability is expressed as a percentage of the untreated controls. IC50 values were determined from a four-parameter logistic equation over a 10-point response curve (GraphPad Prism). All conjugate curves and IC50 values are corrected for payload equivalents.

The test system of series [1] is T47D ductal carcinoma line (PRLR+). Put plainly: In vitro cytotoxicity assay (CellTiter-Glo), T47D cells. In kind it is cell-based, human. As to conditions: for IC50: 5 days, corrected for payload equivalents, read-out: IC50 (cytotoxicity of T47D cells); for maximum percent killing: T47D cells. The protocol: The present example provides cytotoxicity assays for conjugates provided herein. To evaluate the ability of anti-PRLR antibodies conjugated with 63, 60, 77, and 78 to kill a PRLR expressing cell line, an in vitro cytotoxicity assay using a T47D ductal carcinoma line (ATCC, #HTB-133), which was previously determined to express >27,000 copies of human PRLR at its cell surface, was utilized.
For the assay, T47D cells were seeded onto white 96 well plates at 2,000 cells/well in media containing DMEM supplemented with 10% FBS, NEAA, and pencillin/streptomycinin (complete media). They were grown overnight at 37° C. in 5% CO2. To determine cell viability curves, the following day antibody drug conjugates, unconjugated antibodies, or free payloads were added to the cells at final serial dilutions ranging from 100 nM to 0.01 nM in complete medium and then incubated for an additional 5 days. Luciferase activity was detected after the addition of CellTiter-Glo™ reagent (Promega, G7571) to each well, which contains reagents to lyse the remaining viable cells to release their ATP, ATPase inhibitors to prevent degradation of the ATP, as well as luciferin and luciferase to catalyse the luminescent reaction. Viable cells prior to addition of CellTiter-Glo will be the only source of ATP since the dead cells in culture will not synthesis ATP and any of their released ATP will be destroyed via endogenous ATPases. Relative light units (RLUs) were measured on a Victor luminometer (PerkinElmer) and the results were determined using a four-parameter logistic equation over a 10-point response curve (GraphPad Prism). All measured values and calculated IC50 values were corrected for payload equivalents. All IC50 values are expressed in nM concentration and percent kill is reported for the highest concentration tested.
In general terms: Cellular ATP, detected with luciferase, serves as a proxy for viable cell number.

Another series has as its system Ovcar3 (Muc16+) cells. Put plainly: In vitro cytotoxicity assay (CCK8 viability), Ovcar3 cells. In kind it is cell-based. The protocol: as §1, §2
Series [2] deals with T1, human PRLR extracellular domain (hPRLR-MMH) (Homo sapiens, UniProt P16471).
T1 construct: human PRLR extracellular domain expressed with a C-terminal myc-myc-hexahistidine tag; myc-myc-hexahistidine (MMH) (C); made in house
T1 sequence (P16471 25-234 limits assumed): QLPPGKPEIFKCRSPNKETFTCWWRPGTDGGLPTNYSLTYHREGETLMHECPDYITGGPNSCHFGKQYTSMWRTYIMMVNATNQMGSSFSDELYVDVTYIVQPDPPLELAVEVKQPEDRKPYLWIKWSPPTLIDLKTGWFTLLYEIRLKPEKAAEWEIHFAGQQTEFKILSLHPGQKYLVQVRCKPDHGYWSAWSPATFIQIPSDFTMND
The series can be described thus: Surface plasmon resonance (Biacore 3000) binding kinetics. The note with it: 25° C. The protocol: Equilibrium dissociation constants (KD values) for human PRLR binding to purified anti-PRLR antibodies that were either unmodified H1H6958N2, PRLR-Q, and PRLR-Q-63 were determined using a real-time surface plasmon resonance biosensor using a Biacore 3000 instrument. The Biacore sensor surface was first derivatized by amine coupling with a monoclonal mouse anti-human Fc antibody (GE, #BR-1008-39) to capture anti-PRLR monoclonal antibodies. All binding studies were performed in 0.01M HEPES pH 7.4, 0.15M NaCl, 3 mM EDTA, and 0.05% v/v Surfactant Tween-20 (HBS-ET running buffer) at 25° C. and 37° C. Different concentrations of human PRLR extracellular domain expressed with a C-terminal myc-myc-hexahistidine tag (hPRLR-MMH; SEQ ID NO: 401 as described in patent application WO 2015026907 A1), in HBS-ET running buffer ([…]) were injected over the anti-PRLR antibody captured surface for 4 minutes at a flow rate of 50 μL/minute and their dissociation in HBS-ET running buffer was monitored for 8 minutes. Kinetic association rate constant (ka) and dissociation rate constant (kd) were determined by fitting the real-time sensorgrams to a 1:1 binding model using Scrubber 2.0c curve fitting software. Binding dissociation equilibrium constants (KD) and dissociative half-lives (t½) were calculated from the kinetic rate constants as: […]
On the technique in general: SPR reads the build-up and loss of mass on a sensor chip optically.

[3] abbreviates: C4-2 cells, 3 days, conjugate values corrected for payload equivalents, read-out: IC50.
The mark [4] stands for this setting: Table 2, payloads only, read-out: C4-2 IC50.
[5] abbreviates: Table 5, payloads only, read-out: C4-2 IC50.
Where [6] appears, read: Ovcar-3 cells, 3 days, conjugate values corrected for payload equivalents, read-out: IC50.
[7] abbreviates: Table 2, payloads only, read-out: Ovcar3 IC50.
[8] abbreviates: Table 5, payloads only, read-out: Ovcar3 IC50.

Read-outs that look alike come from different tables or passages of the source.

`COc1cc2cc(c1Cl)N(C)C(=O)C[C@H](OC(=O)[C@H](C)N(C)C(=O)c1ccc(N)cc1)[C@]1(C)O[C@H]1[C@H](C)[C@@H]1C[C@@](O)(NC(=O)O1)[C@H](OC)/C=C/C=C(\C)C2` [Compound 27, Maytansin-N-methyl-L-alanine-4-aminobenzamide]: the IC50 in the series on C4-2 (PSMA+) cells (setting [3]) was found to be 0.2 nM; in the series with C4-2 (PSMA+) cells (setting [4]), 0.2 nM; with C4-2 (PSMA+) cells (setting [5]), 0.2 nM; in series [1], 0.1 nM; in the series on Ovcar3 (Muc16+) cells (setting [6]), 0.06 nM; in the series with Ovcar3 (Muc16+) cells (setting [7]) it was 0.09 nM. Moreover, the half-maximal inhibitory concentration (IC50) in the series with Ovcar3 (Muc16+) cells (setting [8]) worked out at 0.09 nM. The C4-2 % kill was determined as 84% in the series with C4-2 (PSMA+) cells (Table 2, payloads only) and 84% in the series with C4-2 (PSMA+) cells (Table 5, payloads only). This molecule had a maximum percent killing in series [1] (highest concentration tested) of 67%. Further, the Ovcar3 % kill in the series with Ovcar3 (Muc16+) cells (Table 2, payloads only) is listed as 92%; with Ovcar3 (Muc16+) cells (Table 5, payloads only) it was 92%.
As to `COc1cc2cc(c1Cl)N(C)C(=O)C[C@H](OC(=O)[C@H](C)N(C)C(=O)c1ccc(N)cc1F)[C@]1(C)O[C@H]1[C@H](C)[C@@H]1C[C@@](O)(NC(=O)O1)[C@H](OC)/C=C/C=C(\C)C2` [Compound 29, Maytansin-N-methyl-L-alanine-(2-fluoro-4-amino)benzamide], the C4-2 % kill turned out to be 83% with C4-2 (PSMA+) cells (Table 2, payloads only) and 83% in the series on C4-2 (PSMA+) cells (Table 5, payloads only). The IC50 came out at 0.27 nM in the series with C4-2 (PSMA+) cells (setting [4]); 0.27 nM in the series with C4-2 (PSMA+) cells (setting [5]); 0.07 nM in series [1]; 0.13 nM in the series with Ovcar3 (Muc16+) cells (setting [7]); 0.13 nM with Ovcar3 (Muc16+) cells (setting [8]). The molecule further registered a maximum percent killing in series [1] (highest concentration tested) of 67%. The same molecule gave a T47D % kill in series [1] (Table 5, payloads only, highest concentration tested) of 67%. Moreover, the Ovcar3 % kill with Ovcar3 (Muc16+) cells (Table 2, payloads only) is 93%; in the series with Ovcar3 (Muc16+) cells (Table 5, payloads only), 93%.
In the case of `COc1cc2cc(c1Cl)N(C)C(=O)C[C@H](OC(=O)[C@H](C)N(C)C(=O)c1ccc(N)cc1C(F)(F)F)[C@]1(C)O[C@H]1[C@H](C)[C@@H]1C[C@@](O)(NC(=O)O1)[C@H](OC)/C=C/C=C(\C)C2` [Compound 31, Maytansin-N-methyl-L-alanine-(2-trifluoromethyl-4-amino)benzamide], the C4-2 % kill with C4-2 (PSMA+) cells (Table 2, payloads only) was 82%; in the series on C4-2 (PSMA+) cells (Table 5, payloads only), 82%. Further, the half-inhibitory concentration (IC50) came out at 0.1 nM in the series with C4-2 (PSMA+) cells (setting [4]), 0.1 nM in the series with C4-2 (PSMA+) cells (setting [5]), 0.04 nM with Ovcar3 (Muc16+) cells (setting [7]) and 0.04 nM in the series with Ovcar3 (Muc16+) cells (setting [8]). Moreover, the Ovcar3 % kill in the series on Ovcar3 (Muc16+) cells (Table 2, payloads only) is listed as 93%; in the series on Ovcar3 (Muc16+) cells (Table 5, payloads only) it was 93%.
For the molecule `COc1cc(N)ccc1C(=O)N(C)[C@@H](C)C(=O)O[C@H]1CC(=O)N(C)c2cc(cc(OC)c2Cl)C/C(C)=C/C=C/[C@@H](OC)[C@@]2(O)C[C@H](OC(=O)N2)[C@@H](C)[C@@H]2O[C@@]12C` [Compound 33, Maytansin-N-methyl-L-alanine-(2-methoxy-4-amino)benzamide], the IC50 came out at 0.55 nM in the series with C4-2 (PSMA+) cells (setting [3]); 0.45 nM in the series with C4-2 (PSMA+) cells (setting [4]); 0.45 nM in the series on C4-2 (PSMA+) cells (setting [5]); 0.11 nM in the series on Ovcar3 (Muc16+) cells (setting [6]); 0.2 nM with Ovcar3 (Muc16+) cells (setting [7]); 0.2 nM with Ovcar3 (Muc16+) cells (setting [8]). In addition, the C4-2 % kill in the series on C4-2 (PSMA+) cells (Table 2, payloads only) amounted to 86%; in the series on C4-2 (PSMA+) cells (Table 5, payloads only), 86%. In addition, the Ovcar3 % kill with Ovcar3 (Muc16+) cells (Table 2, payloads only) is reported as 93%; in the series on Ovcar3 (Muc16+) cells (Table 5, payloads only), 93%.
Regarding `COc1cc2cc(c1Cl)N(C)C(=O)C[C@H](OC(=O)[C@H](C)N(C)C(=O)c1ccc(N)c(C(F)(F)F)c1)[C@]1(C)O[C@H]1[C@H](C)[C@@H]1C[C@@](O)(NC(=O)O1)[C@H](OC)/C=C/C=C(\C)C2` [Compound 35, Maytansin-N-methyl-L-alanine-N-(3-trifluoromethyl-4-amino)benzamide], the C4-2 % kill is reported as 84% in the series with C4-2 (PSMA+) cells (Table 2, payloads only) and 84% with C4-2 (PSMA+) cells (Table 5, payloads only). Moreover, the half-inhibitory concentration (IC50) was 0.004 nM in the series with C4-2 (PSMA+) cells (setting [4]), 0.004 nM with C4-2 (PSMA+) cells (setting [5]), less than 0.01 nM in the series with Ovcar3 (Muc16+) cells (setting [7]) and less than 0.01 nM in the series on Ovcar3 (Muc16+) cells (setting [8]). Moreover, the Ovcar3 % kill with Ovcar3 (Muc16+) cells (Table 2, payloads only) came out at 93%; in the series with Ovcar3 (Muc16+) cells (Table 5, payloads only), 93%.
On to `COc1cc2cc(c1Cl)N(C)C(=O)C[C@H](OC(=O)[C@H](C)N(C)C(=O)c1cc(F)c(N)cc1Cl)[C@]1(C)O[C@H]1[C@H](C)[C@@H]1C[C@@](O)(NC(=O)O1)[C@H](OC)/C=C/C=C(\C)C2` [Compound 37, Maytansin-N-methyl-L-alanine-N-(2-chloro-4-amino-5-fluoro)benzamide], for which the C4-2 % kill was found to be 86% in the series on C4-2 (PSMA+) cells (Table 2, payloads only) and 86% in the series with C4-2 (PSMA+) cells (Table 5, payloads only). The IC50 in the series with C4-2 (PSMA+) cells (setting [4]) was 0.01 nM; with C4-2 (PSMA+) cells (setting [5]), 0.01 nM; with Ovcar3 (Muc16+) cells (setting [7]), less than 0.01 nM; in the series with Ovcar3 (Muc16+) cells (setting [8]), less than 0.01 nM. The Ovcar3 % kill in the series on Ovcar3 (Muc16+) cells (Table 2, payloads only) was found to be 94%; in the series on Ovcar3 (Muc16+) cells (Table 5, payloads only), 94%.

B1: H1H6958N2 (antibody, V domains shown)
VH: QVQLVESGGGVVQPGRSLRLSCGASGFTFRNYGMQWVRQGPGKGLEWVTLISFDGNDKYYADSVKGRFTISRDNSKNTLFLQMNSLRTEDTAVYYCARGGDFDYWGQGTLVTVSS
VL: DIQMTQSPSSLSASVGDRVTITCRASQDIRKDLGWYQQKPGKAPKRLIYAASSLHSGVPSRFSGSGSGTEFTLTISSLQPEDFATYYCLQHNSYPMYTFGQGTKLEIK
As for B1, in series [2], the “ka” value was found to be 417000 M⁻¹ s⁻¹ and the “kd” value is 0.000454 s⁻¹. The “100 nM hPRLR-MMH Bound (RU)” value in series [2] (antibody captured on anti-human Fc surface) was determined as 38 RU. For the same molecule, the equilibrium dissociation constant (Kd) in series [2] (calculated from kinetic rate constants, read-out: KD) is 1.09 nM. In addition, the Kd in series [2] (read-out: KD value) is 1.09 nM.

One may read the IC50 as the concentration that gives 50% inhibition. In general, Kd refers to the constant that tells how readily two partners part at equilibrium.
